# In patent US20240002394A1, “DEUTERIUM-MODIFIED THIENOPYRIDONE COMPOUND” (Chia Tai Tianqing Pharmaceutical Group Co., Ltd., priority 2020, published 2024):
# Assays:
# [1] = target: HPK1 (Homo sapiens (Human), UniProt Q92918); test: Assay for in vitro inhibitory activity against HPK1 kinase; assay type: biochemical; details: ATP 0.1 mM; HTRF, STK Substrate 1-biotin; read-out: In vitro inhibitory activity against enzyme HPK1 IC50
# Experimental: The kinase buffer (Enzymatic buffer 5×) was diluted to 1×, and 10 mM MgCl2, 1 mM DTT, and 0.005% Tween 20 were added. The 100 ng/μL HPK1 (Life technology) stock solution was diluted with the kinase buffer to obtain a 1.67×, 1.67 ng/μL working solution (final concentration: 1 ng/μL), and the working solution was seeded in a 384-well plate at 6 μL/well. Different compounds dissolved in DMSO were added to the wells using a nanoliter pipettor to final concentrations of 1000 nM to 0.244 nM (4-fold serial dilution, 7 concentrations in total), and blank control wells (without enzyme) and negative control wells (with enzyme, plus vehicle DMSO) were set; the wells were set in duplicate. After the enzyme and compounds were incubated at room temperature for 1 h, a 5×, 0.5 mM ATP dilution (final concentration: 0.1 mM) in the kinase buffer was mixed with a 5×, 2.5 μM substrate (Cisbio, STK Substrate 1-biotin; final concentration: 500 nM) in equal volume, and the mixture was added to each well at 4 μL/well. The plate was sealed with a film and then incubated at room temperature for 2 h. An assay antibody solution was prepared by mixing the antibody STK Antibody-cryptate (Cisbio, 5 μL/test) and a 4×, 500 nM Streptavidin-XL665 (Cisbio; final concentration: 125 nM) in equal volume and was added to each well at 10 μL/well, and the plate was incubated at room temperature for 1 h. The signal values ([…]) were measured using a PE Envision multi-functional microplate reader, and IC50 was calculated by four-parameter fitting.
# [2] = In vitro liver microsomal stability (HLM); assay type: in vitro ADME, human
# Experimental: (§1) Preparation of liver microsome incubated samples: PBS buffer (pH 7.4), liver microsome solutions (0.5 mg/mL; HLM and MLM, respectively), the test compounds and NADPH+MgCl2 solution were mixed and incubated at 37° C. at 300 rpm for 1 h. Preparation of zero-hour samples: PBS buffer (pH 7.4), liver microsome solutions (0.5 mg/mL; HLM and MLM, respectively) and the test compounds were mixed. An acetonitrile solution containing internal standard was added to the samples, and supernatants were prepared by protein precipitation, diluted and then analyzed by LC/MS/MS.
# [3] = In vitro liver microsomal stability (MLM); assay type: in vitro ADME, mouse
# Experimental: as §1
# [4] = tested on: Jurkat cell p-SLP76 phosphorylation; test: Assay for Jurkat cell p-SLP76 phosphorylation inhibitory activity; assay type: cell-based; details: Homo sapiens, 0.5 h; Jurkat cells, CD3CD28 stimulation 30 min; read-out: Jurkat cell p-SLP76 phosphorylation inhibition IC50
# Experimental: The Jurkat cells in a good growth state were added to a centrifuge tube, centrifuged, and resuspended. The cell density was adjusted to 6.25×10^6 cells/mL, and the cells were seeded in a 384-well small-volume white plate at 8 μL/well. Compounds were added in duplicate using a nanoliter pipettor to final concentrations of 2500 nM to 10.29 nM and a control was set. After 1 h of cell culture, the stimulator CD3CD28 (4 μL; manufacturer: Stemcell) was added and the cells were incubated at 37° C. for 30 min. 3 μL of lysis buffer (manufacturer: BioAuxilium) was added to each well, and the plate was shaken at room temperature for 30 min. After the lysate was well mixed, 5 μL of pre-mixed antibody (manufacturer: BioAuxilium) in assay buffer was added and the plate was incubated overnight at room temperature. The signal values were measured on a PerkinElmer Envision multi-functional microplate reader (excitation: 320 nm, emission: 615 nm/665 nm), and IC50 was calculated by four-parameter fitting.
# [5] = HLM 0.5 mg/mL, 37° C., NADPH, 60 min
# [6] = MLM 0.5 mg/mL, 37° C., NADPH, 60 min
# Chain of HPK1 (Q92918 whole entry): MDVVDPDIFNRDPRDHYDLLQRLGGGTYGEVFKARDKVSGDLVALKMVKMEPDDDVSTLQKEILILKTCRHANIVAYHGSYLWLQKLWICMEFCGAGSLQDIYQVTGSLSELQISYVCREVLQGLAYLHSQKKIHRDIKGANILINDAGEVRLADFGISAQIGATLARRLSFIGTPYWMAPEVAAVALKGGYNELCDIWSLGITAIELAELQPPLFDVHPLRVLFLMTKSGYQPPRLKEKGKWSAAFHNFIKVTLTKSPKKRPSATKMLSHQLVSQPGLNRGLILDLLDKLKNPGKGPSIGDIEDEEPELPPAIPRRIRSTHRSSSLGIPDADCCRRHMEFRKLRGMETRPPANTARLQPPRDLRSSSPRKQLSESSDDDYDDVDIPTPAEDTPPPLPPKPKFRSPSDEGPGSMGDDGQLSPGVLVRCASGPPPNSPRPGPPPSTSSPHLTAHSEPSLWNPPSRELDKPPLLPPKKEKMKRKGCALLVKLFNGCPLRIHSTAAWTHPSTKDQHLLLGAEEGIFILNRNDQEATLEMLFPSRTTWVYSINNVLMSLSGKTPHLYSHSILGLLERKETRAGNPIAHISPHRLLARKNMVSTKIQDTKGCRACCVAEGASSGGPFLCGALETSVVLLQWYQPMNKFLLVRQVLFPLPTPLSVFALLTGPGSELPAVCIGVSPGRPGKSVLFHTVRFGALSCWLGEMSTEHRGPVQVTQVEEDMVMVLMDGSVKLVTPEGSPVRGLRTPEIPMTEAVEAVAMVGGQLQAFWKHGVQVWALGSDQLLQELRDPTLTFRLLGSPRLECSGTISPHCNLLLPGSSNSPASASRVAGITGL
SMILES,IC50 [1] [nM],"HLM (0.5 mg/mL) Remaining percentage (T = 60 min) [2, 5] [%]","MLM (0.5 mg/mL) Remaining percentage (T = 60 min) [3, 6] [%]",IC50 [4] [nM],"HLM (0.5 mg/mL) Remaining percentage (T = 60 min) ([2]; human, microsomes, 1 h, pH 7.4) [%]","MLM (0.5 mg/mL) Remaining percentage (T = 60 min) ([3]; mouse, microsomes, 1 h, pH 7.4) [%]"
"[2H]C1([2H])N(C)C([2H])([2H])C([2H])([2H])N(c2ccc3[nH]c(-c4c(N)c5ccsc5[nH]c4=O)nc3c2)C1([2H])[2H] [Example 2, 4-amino-5-(5-(4-methylpiperazin-1-yl-2,2,3,3,5,5,6,6-d8)-1H-benzo[d]imidazol-2-yl)thieno [2,3-b]pyridin-6(7H)-one]",9.7,89.66,45.97,,,
"[2H]C1([2H])CN(c2ccc3[nH]c(-c4c(N)c5ccsc5[nH]c4=O)nc3c2)CC([2H])([2H])N1C [Example 3, 4-amino-5-(5-(4-methylpiperazin-1-yl-3,3,5,5-d4)-1H-benzo[d]imidazol-2-yl)thieno[2,3-b]pyridin-6(7H)-one]",7.5,90.85,45.47,,,
"[2H]C1([2H])CN(C)CC([2H])([2H])N1c1ccc2[nH]c(-c3c(N)c4ccsc4[nH]c3=O)nc2c1 [Example 4, 4-amino-5-(5-(4-methylpiperazin-1-yl-2,2,6,6-d4)-1H-benzo[d]imidazol-2-yl)thieno[2,3-b]pyridin-6(7H)-one]",9.2,,,83,88.50,42.58
"[2H]c1cc2c(N)c(-c3nc4c([2H])c(N5CCN(C)CC5)c([2H])cc4[nH]3)c(=O)[nH]c2s1 [Example 5, 4-amino-5-(5-(4-methylpiperazin-1-yl)-1H-benzo[d]imidazol-2-yl-4,6-d2)thieno[2,3-b]pyridin-6(7H)-one-2-d]",8.8,,,53,,
